# In ChEMBL document CHEMBL3988442, “University of Dundee, Small-Polar-MMV Screening Library” (2021):
# Molecular target: Lysine--tRNA ligase (Plasmodium falciparum (isolate 3D7), UniProt Q8IDJ8)
# Assay: Pf-KRS-1 (Lysyl-RNA Synthetase-1, KRS-1, cytosolic KRS) from Plasmodium falciparum. Inhibitor assay, 384 well plate, luminescence read.
# Type: functional
# Lysine--tRNA ligase, sequence (Q8IDJ8 whole entry): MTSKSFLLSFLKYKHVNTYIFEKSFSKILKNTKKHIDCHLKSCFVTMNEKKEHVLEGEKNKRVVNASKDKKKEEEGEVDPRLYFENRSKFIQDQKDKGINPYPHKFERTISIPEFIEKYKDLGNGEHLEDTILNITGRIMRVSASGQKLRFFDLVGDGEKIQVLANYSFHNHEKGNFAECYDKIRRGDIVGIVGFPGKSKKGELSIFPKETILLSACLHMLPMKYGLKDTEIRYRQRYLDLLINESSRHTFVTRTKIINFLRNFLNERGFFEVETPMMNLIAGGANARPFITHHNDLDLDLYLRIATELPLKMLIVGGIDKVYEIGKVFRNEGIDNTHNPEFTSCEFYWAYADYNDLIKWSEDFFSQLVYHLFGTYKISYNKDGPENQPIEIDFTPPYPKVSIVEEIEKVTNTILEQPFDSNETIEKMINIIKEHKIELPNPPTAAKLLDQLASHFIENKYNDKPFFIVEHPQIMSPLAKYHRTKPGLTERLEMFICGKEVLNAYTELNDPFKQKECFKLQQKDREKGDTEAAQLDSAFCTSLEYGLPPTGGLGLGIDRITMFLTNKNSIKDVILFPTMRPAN
row,SMILES,IC50 [µM]
1,COCCOc1ccc(NC(=O)N2CCCC2c2ccsc2)cn1 (centres undefined),> 50.1
2,O=c1[nH]c2c(c(=O)n1C1CCCCC1)CCC2NCCc1ccccc1 (centres undefined),1.75
3,Cc1ccn2ncc(C(=O)N3CCCC(n4nc(C)nc4C)C3)c2n1 (centres undefined),> 50.1
4,Cn1cnnc1C1CCCN(C(=O)c2ccc3c(c2)OCCO3)C1 (centres undefined),> 50.1
5,COc1cc(OC)nc(N2CCC3(CC2)OCCCC3O)n1 (centres undefined),> 50.1
6,COCCCN1CC2(CCCCN2C(=O)C2CCCCC2)CC1=O (centres undefined),> 50.1
7,Cc1nnc(CN2CCCC(CCc3ccccc3C(F)(F)F)C2)o1 (centres undefined),> 50.1
8,CN1C(=O)CC2(CCN(S(=O)(=O)C3CC3)CC2)c2ccccc21,> 50.1
9,Cn1c(CN2CCCc3cc(F)cc(F)c32)cc(=O)n(C)c1=O,> 50.1
10,COc1ccc(/C=C/CN2C[C@H]3CC[C@@H]2CN(S(=O)(=O)N(C)C)C3)cc1,> 50.1
11,CN(Cc1cccs1)C1CCC[C@@H]2CN(C(=O)c3cccn3C)C[C@H]12 (some centres undefined),> 50.1
12,COc1ccc(-n2nnc(C(=O)NCC3CCCCC3)n2)cc1,> 50.1
13,N#Cc1cccc(CN2CCN(Cc3cscn3)CC2)c1,> 50.1
14,Cc1ccc(CN2C[C@@H]3CN(CC4CCOCC4)CCO[C@@H]3C2)s1,> 50.1
15,Cc1nc(CN(C)C2CCN(Cc3c(C)noc3C)C2)no1 (centres undefined),> 50.1
16,O=C(NCC1(O)CCCCC1)c1coc(COc2cccc(F)c2)n1,> 50.1
17,CN(C)CCn1ccnc1C1CCN(c2cc(N)nc(N)n2)CC1,> 50.1
18,CS(=O)(=O)N1C[C@H](C(=O)Nc2cnccn2)C[C@H]2OCC[C@H]21,> 50.1
19,CN1CC(c2ccccc2)CC12CCN(C(=O)c1cccnc1)CC2 (centres undefined),> 50.1
20,COc1cc(CNCCn2ccnc2)cc2c1OCO2,> 50.1
21,Cc1sc(Oc2ccccc2Cl)nc1C(=O)O,> 50.1
22,Cc1nc(N(C)C)ncc1C(=O)NCCc1csc(-c2cnccn2)n1,> 50.1
23,O=c1c(CN2CCCCC2)coc2ccc(Cl)cc12,> 50.1
24,O=C(CCNC(=O)c1ccoc1)Nc1cccc(F)c1,> 50.1
25,Cc1ccc(N2CC[C@H](OCC3CC3)[C@@H]2Cc2cnn(C)c2)nn1,> 50.1

row,SMILES,IC50 [µM]
1,CSC(C)C(=O)NCc1ccc(-n2cncn2)nc1 (centres undefined),> 50.1
2,O=c1[nH]c2c(c(=O)n1C1CCCCC1)CCC2Nc1ccccn1 (centres undefined),> 50.1
3,CCC[C@@H]1CN(Cc2nnc(-c3cccc(F)c3)o2)C[C@H]1NC(C)=O,> 50.1
4,CC(C)C1CN(C(=O)c2cc(=O)[nH]c(=O)[nH]2)CCCN1CC1CC1 (centres undefined),> 50.1
5,Cc1cc(NC(=O)CCCn2ccnc2C)nc(C(C)C)n1,> 50.1
6,CCc1c(C)[nH]c(C(C)(N)CC)nc1=O (centres undefined),> 50.1
7,Cc1cccc2c1CCN(c1cc(N3CCCC3CO)ncn1)C2 (centres undefined),> 50.1
8,Cc1nnc(NCCn2nc(C)c(Cl)c2C)o1,> 50.1
9,CCN1CCC(N2CCN(c3cc(-c4nc(C)no4)ccn3)CC2)CC1,> 50.1
10,Cc1noc(C)c1CN1CC[C@H]2[C@H]1CCN2CC1CCOCC1,> 50.1
11,Cc1nc(CN2CCC3(CCCO3)CC2)c2ccccn12,> 50.1
12,CN1C[C@@H]2CC[C@H](CC1=O)N2C(=O)c1ccc(-c2ccccc2)[nH]c1=O,> 50.1
13,CS(=O)(=O)c1ccc(CNC(=O)N2CCC(C(N)=O)C2)cc1 (centres undefined),> 50.1
14,FC(F)(F)CCc1ccnc(NC2CCOC2)n1 (centres undefined),> 50.1
15,CCc1nc(CN2CCOC(CN(CC)c3cccnn3)C2)cs1 (centres undefined),> 50.1
16,COc1ccccc1CNc1ccc2nncn2n1,> 50.1
17,CCOc1cccc2c1OCC(C(=O)NS(=O)(=O)Cc1ccccc1)=C2,> 50.1
18,CCCc1ccc(CN2CCN(C(=O)CC(C)C)[C@@H]3CS(=O)(=O)C[C@@H]32)o1,> 50.1
19,NC(=O)c1csc(N2CCCC(c3n[nH]c(=O)n3-c3ccccc3)C2)n1 (centres undefined),> 50.1
20,O=C(Nc1cccnc1)[C@H]1C[C@@H]2CCN(c3nncs3)C[C@H]2O1,> 50.1
21,COc1cccc(COCC(=O)N2CCCC(n3cccn3)C2)c1 (centres undefined),> 50.1
22,COCCC(=O)N1CCC2(CC1)CC(c1ccccc1)CN(C1CC1)C2 (centres undefined),> 50.1
23,COCCOc1ccccc1C(=O)N(C)Cc1ncc(C)c(OC)c1C,> 50.1
24,Cc1cc(C)c2c(NCC3(O)CCCCC3)ncnc2n1,> 50.1
